According to patent publication US6660501B2, “Production of proteins by cell culture” (Lonza Group, AG, priority 1986, dated 2003):

Tests used:
hybridoma cell line I = test: Harvest antibody titre, hybridoma cell line I; assay type: cell-based; settings: DMEM + 5% FCS, control 113
Experimental: (§1) […] Cells were cultured in either roller bottles or in shake-flasks, as in Example 1. Sodium butyrate was added to cultures immediately after inoculation.

[1] = tested on: mouse C127 cell line producing recombinant tissue plasminogen activator (tPA); test: Production of recombinant tPA from C127 cell line on microcarriers (fibrin-agar method; nuclei count); assay type: cell-based; settings: for CONCENTRATION OF TPA PER ML: control 100
Experimental: A mouse C127 cell line producing recombinant tissue plasminogen activator (tPA) was cultured on microcarriers (gelibeads, K. C. Biologicals) in spinner vessels (Bellco). The growth medium was DMEM supplemented with 10% foetal calf serum. The concentration of microcarriers were 5 grams (dryweight) per liter of medium. Calls were inoculated at a density of 1×10^5 cells per ml.
After the cells had grown to confluency on the surface of the microcarriers, growth medium was aspirated and replaced with a protein-free DMEM-based maintenance medium containing the butyrate. Control cultures received no butyrate.
Cell density was determined by counting nuclei which were released from cells by hypotonic lysis (ref. Absher, in “Tissue Culture Methods and Applications”, Kruse & Patterson. Academic Press 1973). The concentration of tPA in the supernatant was assayed using the fibrin-agar method.

hybridoma cell line F = test: Harvest antibody titre, hybridoma cell line F; assay type: cell-based; settings: SFM + 5% FCS, 0.50 mM butyrate, control 90
Experimental: as §1

HeLa-cell cultures = settings: cited from earlier work
[2] = tested on: hybridoma cells (as Example 1, NB1/19); test: Butyrate-enhanced antibody production in hybridoma cells cultured in serum supplemented medium; assay type: cell-based, mouse; settings: DMEM + 10% foetal calf serum
Experimental: (§2) The IgM secreting mouse hybridoma cell line NB1/19 was grown in suspension culture in Dulbeccos Modified Eagles Minimum (DMEM) serum-free medium containing albumin, insulin, transferrin, gentamycin and other additives as required to cultivate cells in suspension culture. The NB1/19 cell line produces a mouse monoclonal antibody having specificity for an antigenic determinant of human B-type blood cells. The preparation of this call line is described in detail in the specification of British Patent GB 2097425B. It will be appreciated, however, that other hybridoma cell lines may be used in place of this particular cell line as appropriate in this and other examples.
The cells were grown to a viable cell density of 1.0-1.5×10^6 cells/ml. Viable cell density was determined by counting the number of cells which exclude trypan blue, a staining agent. A sample of the suspension culture was diluted in a serum-free medium to a density of about 1.3×10^5 cells/ml. […]
(§3) The shake flasks were gassed with 5% CO2-95% air, and sealed and incubated with shaking at 37° C. for up to 207 hours. (Table 1). Samples ([…]) were removed from the culture by pipette. 100 μl was used to determine viable cell count and the reminder centrifuged at 300×g for five minutes. Supernatants were stored at −20° C. prior to antibody determination by enzyme linked immunosorbent assay (ELISA).
The protocol for this experiment is similar to that outlined in Example 1, except that the cells were cultured in Dulbeccos Modified Eagles Minimum medium supplemented with 10% foetal calf serum.

[3] = tested on: Syrian hamster cells with plasmid containing SV40 genome and HSV-TK gene; settings: concentrations ranging from 1 mM to 5 mM; Yuan et al; cited from earlier work
hybridoma cell line D = test: Harvest antibody titre, hybridoma cell line D; assay type: cell-based; settings: SFM + 10% FCS, control 29
Experimental: (§4) Hybridoma cells were grown in suspension culture in either serum-free medium (see Example 1) or in DMEM supplemented with 10% (v/v), heat inactivated foetal calf serum. Cells were cultured in either roller bottles or in shake-flasks, as in Example 1. Sodium butyrate was added to cultures immediately after inoculation.

hybridoma cell line L = test: Harvest antibody titre, hybridoma cell line L; assay type: cell-based; settings: SFM, control 34
Experimental: as §4

hybridoma cell line C = test: Harvest antibody titre, hybridoma cell line C; assay type: cell-based; settings: DMEM + 10% FCS, 0.50 mM butyrate, control 51
Experimental: as §4

NT1/19 cells = test: Effect of varying alkanoates on antibody production from hybridoma cells; assay type: cell-based; settings: for AVERAGE DATA FROM EXP. #1 & #2: average of relative productivity, control 100.00; for PRODUCTIVITY EXP #2: control 2.39
Experimental: as §2
The cells were grown to a viable cell density of 1.0-1.5×10^6 cells/ml. Viable cell density was determined by counting the number of cells which exclude trypan blue, a staining agent. A sample of the suspension culture was diluted in a serum-free medium to a density of about 1.3×10^5 cells/ml. Aliquots of 50 ml in volume were dispensed into shake flasks and sodium butyrate added at concentrations of 0.1 mM, 0.3 mM, 0.5 mM and 1.0 mM.
as §3
NT1/19 cells were cultured as in Example 1. Varying straight chain sodium alkanoate salts (propionate, butyrate, bentanoate or hexanoate) were added to the inoculum at the concentrations indicated in Table 5.

hybridoma cell line B = test: Harvest antibody titre, hybridoma cell line B; assay type: cell-based; settings: SFM + 10% FCS, control 173
Experimental: as §4

hybridoma cell line K = test: Harvest antibody titre, hybridoma cell line K; assay type: cell-based; settings: SFM + 1% FCS, 0.50 mM butyrate, control 15
Experimental: as §4

CCCC(=O)[O-].[Na+] [sodium butyrate]
HARVEST ANTIBODY TITER (hybridoma cell line I; 0.35 mM butyrate): 135 mg/L | HARVEST ANTIBODY TITER (hybridoma cell line I; 0.50 mM butyrate): 154 mg/L | CELL DENSITY ([1]; 0.5 mM butyrate, maintenance period 46 hours, control 10.8): 11.1 x10^5 cells/ml | CONCENTRATION OF TPA PER ML ([1]; 0.5 mM butyrate, maintenance period 46 hours): 159 arbitrary units | CELL DENSITY ([1]; 0.5 mM butyrate, maintenance period 92 hours, control 13.7): 10.3 x10^5 cells/ml | CONCENTRATION OF TPA PER ML ([1]; 0.5 mM butyrate, maintenance period 92 hours): 143 arbitrary units | CELL DENSITY ([1]; 0.5 mM butyrate, maintenance period 140 hours, control 19.1): 12.3 x10^5 cells/ml | CONCENTRATION OF TPA PER ML ([1]; 0.5 mM butyrate, maintenance period 140 hours): 186 arbitrary units | CELL DENSITY ([1]; 1.0 mM butyrate, maintenance period 46 hours, control 10.8): 11.5 x10^5 cells/ml | CONCENTRATION OF TPA PER ML ([1]; 1.0 mM butyrate, maintenance period 46 hours): 191 arbitrary units | CELL DENSITY ([1]; 1.0 mM butyrate, maintenance period 92 hours, control 13.7): 9.2 x10^5 cells/ml | CONCENTRATION OF TPA PER ML ([1]; 1.0 mM butyrate, maintenance period 92 hours): 157 arbitrary units | CELL DENSITY ([1]; 1.0 mM butyrate, maintenance period 140 hours, control 19.1): 9.4 x10^5 cells/ml | CONCENTRATION OF TPA PER ML ([1]; 1.0 mM butyrate, maintenance period 140 hours): 236 arbitrary units | CELL DENSITY ([1]; 2.5 mM butyrate, maintenance period 46 hours, control 10.8): 9.6 x10^5 cells/ml | CONCENTRATION OF TPA PER ML ([1]; 2.5 mM butyrate, maintenance period 46 hours): 945 arbitrary units | CELL DENSITY ([1]; 2.5 mM butyrate, maintenance period 92 hours, control 13.7): 7.6 x10^5 cells/ml | CONCENTRATION OF TPA PER ML ([1]; 2.5 mM butyrate, maintenance period 92 hours): 1782 arbitrary units | CELL DENSITY ([1]; 2.5 mM butyrate, maintenance period 140 hours, control 19.1): 6.6 x10^5 cells/ml | CONCENTRATION OF TPA PER ML ([1]; 2.5 mM butyrate, maintenance period 140 hours): 3468 arbitrary units | HARVEST ANTIBODY TITER (hybridoma cell line F): 132 mg/L | human choriogonadotropin synthesis (HeLa-cell cultures; 1 mM, Ghosh et al, Cox & McClure): induce human choriogonadotropin synthesis | cell growth (HeLa-cell cultures; butyrate treatment): inhibited cell growth | Average specific rate of antibody production ([2]; 0.5 mM sodium butyrate): 39 μg/10^6 cells/day | Maximum antibody concentration ([2]; 0.5 mM sodium butyrate): 54 µg/mL | Average specific rate of antibody production ([2]; 0.75 mM sodium butyrate): 69 μg/10^6 cells/day | Maximum antibody concentration ([2]; 0.75 mM sodium butyrate): 55 µg/mL | expression of SV40 and HSV-TK genes compared with control values [3]: inhibited the expression of both genes | HARVEST ANTIBODY TITER (hybridoma cell line D; 0.35 mM butyrate): 39 mg/L | HARVEST ANTIBODY TITER (hybridoma cell line D; 0.50 mM butyrate): 50 mg/L | HARVEST ANTIBODY TITER (hybridoma cell line L; 0.25 mM butyrate): 50 mg/L | HARVEST ANTIBODY TITER (hybridoma cell line L; 0.50 mM butyrate): 58 mg/L | HARVEST ANTIBODY TITER (hybridoma cell line C): 71 mg/L | AVERAGE DATA FROM EXP. #1 & #2 (NT1/19 cells; 0.50 mM alkanoate): 204.39 | PRODUCTIVITY EXP #2 (NT1/19 cells; 0.50 mM alkanoate): 4.7 ug antibody per 10^5 cells | PRODUCTIVITY EXP. #1 (NT1/19 cells; 0.50 mM alkanoate, control 3.30): 7.00 ug antibody per 10^5 cells | AVERAGE DATA FROM EXP. #1 & #2 (NT1/19 cells; 1.00 mM alkanoate): 368.20 | PRODUCTIVITY EXP #2 (NT1/19 cells; 1.00 mM alkanoate): 8.80 ug antibody per 10^5 cells | HARVEST ANTIBODY TITER (hybridoma cell line B; 0.35 mM butyrate): 232 mg/L | HARVEST ANTIBODY TITER (hybridoma cell line B; 0.50 mM butyrate): 240 mg/L | HARVEST ANTIBODY TITER (hybridoma cell line K): 26 mg/L
